In brackets after ≈: the same amount, converted by molar mass.
Assays:
[1] = Solubility was measured in saline; type: physicochemical
physchem = settings: water
Description: Solubility of the compound(10 mg) was measured in water(2.5 mL) at 20 degree celsius for 1 hr

Adenosine receptor A1 [2] = target: T1, Adenosine receptor A1 (Cavia porcellus, UniProt P47745); type: cell membranes, Brain membranes
T1 sequence (P47745 whole entry): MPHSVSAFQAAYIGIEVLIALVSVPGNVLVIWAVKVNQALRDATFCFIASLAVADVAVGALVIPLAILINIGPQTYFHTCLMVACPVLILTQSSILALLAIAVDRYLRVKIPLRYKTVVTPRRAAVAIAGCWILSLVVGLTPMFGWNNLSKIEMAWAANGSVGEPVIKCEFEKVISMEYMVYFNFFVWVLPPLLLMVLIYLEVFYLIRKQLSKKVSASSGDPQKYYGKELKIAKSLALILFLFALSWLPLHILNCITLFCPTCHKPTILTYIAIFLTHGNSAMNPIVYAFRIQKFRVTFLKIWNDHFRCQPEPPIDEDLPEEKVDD

Adenosine A2 receptor = Adenosine A2 receptor (Homo sapiens, UniProt P29275+P29274); assay: Binding affinity for adenosine A2 receptor using N-[3H]-ethyladenosin-5''-uronamide in guinea pig forebrain membranes
Adenosine receptor A1 [3] = target: T1, Adenosine receptor A1; type: cell membranes, Brain membranes; remark: listed apart in the source

| solubility [1] | solubility at 1 h (physchem) | Ki (Adenosine receptor A1 [2]) | Ki (Adenosine A2 receptor) | Ki (Adenosine receptor A1 [3]) | Structure (SMILES) |
| --- | --- | --- | --- | --- | --- |
| 200 µg/mL (≈ 628 µM) | 220 µg/mL (≈ 691 µM) |  |  |  | CCCn1c(=O)c2[nH]c(C3CCC(=O)C3)nc2n(CCC)c1=O (stereo not given) |
|  | 2900 µg/mL (≈ 7890 µM) | 120 nM |  |  | CCCN1C(=O)N2C[C@H](CC)N=C2c2[nH]c(C34CC5CC(CC3C5)C4)nc21 |
| 5.8 µg/mL (≈ 17.6 µM) | 8.5 µg/mL (≈ 25.7 µM) |  | 430 nM |  | CCCn1c(=O)c2nc(C(C3CC3)C3CC3)[nH]c2n(CCC)c1=O |
|  | 3000 µg/mL (≈ 8160 µM) | 2.7 nM |  |  | CCCN1C(=O)N2C[C@@H](CC)N=C2c2[nH]c(C34CC5CC(CC3C5)C4)nc21 |
| 990 µg/mL (≈ 2690 µM) | 3200 µg/mL (≈ 8710 µM) |  |  | 5.7 nM | CCCN1C(=O)N2CC(CC)N=C2c2[nH]c(C34CC5CC(CC3C5)C4)nc21 (stereo not given) |
| 0.6 µg/mL (≈ 1.68 µM) | 0.5 µg/mL (≈ 1.4 µM) |  |  |  | CCCn1c(=O)c2[nH]c(C34CC5CC(CC3C5)C4)nc2n(CCC)c1=O [ROLOFYLLINE] |
|  | 3.3 µg/mL (≈ 10.8 µM) |  |  |  | CCCn1c(=O)c2[nH]c(C3CCCC3)nc2n(CCC)c1=O [1,3-DIPROPYL-8-CYCLOPENTYLXANTHINE [DPCPX]] |

Source: ChEMBL document CHEMBL1126134, “7,8-Dihydro-8-ethyl-2-(3-noradamantyl)-4-propyl-1H-imidazo[2,1-i]purin-5(4H)-one: a potent and water-soluble adenosine A1 antagonist” (J Med Chem, 1992)
